In general, GI50 refers to the concentration giving 50% growth inhibition. A lower GI50 goes with greater sensitivity of the cells. As a reminder, the melting point is the temperature, or range, at which the solid turns liquid.

The values that follow come from US20030087906A1, “NITROGEN SUBSTITUTED BIARYL PURINE DERIVATIVES AS POTENT ANTIPROLIFERATIVE AGENTS” (priority 2001, published 2003).

In series [1] the target is T1, CyclinB/cdk1 (Homo sapiens, UniProt P06493).
T1 construct: Monoclonal antibody against cyclinB (GNS1) is added to the supernatant; endogenous in cells
T1 sequence (P06493 whole entry): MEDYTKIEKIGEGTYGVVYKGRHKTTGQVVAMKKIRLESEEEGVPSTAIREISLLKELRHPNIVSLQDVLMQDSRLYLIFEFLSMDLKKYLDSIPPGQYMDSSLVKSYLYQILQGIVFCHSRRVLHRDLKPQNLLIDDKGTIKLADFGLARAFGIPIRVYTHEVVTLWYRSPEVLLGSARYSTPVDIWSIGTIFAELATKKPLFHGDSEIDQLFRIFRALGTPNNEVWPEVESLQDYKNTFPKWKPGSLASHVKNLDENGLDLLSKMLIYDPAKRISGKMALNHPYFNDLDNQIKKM
T1 sequence (P14635 whole entry partner): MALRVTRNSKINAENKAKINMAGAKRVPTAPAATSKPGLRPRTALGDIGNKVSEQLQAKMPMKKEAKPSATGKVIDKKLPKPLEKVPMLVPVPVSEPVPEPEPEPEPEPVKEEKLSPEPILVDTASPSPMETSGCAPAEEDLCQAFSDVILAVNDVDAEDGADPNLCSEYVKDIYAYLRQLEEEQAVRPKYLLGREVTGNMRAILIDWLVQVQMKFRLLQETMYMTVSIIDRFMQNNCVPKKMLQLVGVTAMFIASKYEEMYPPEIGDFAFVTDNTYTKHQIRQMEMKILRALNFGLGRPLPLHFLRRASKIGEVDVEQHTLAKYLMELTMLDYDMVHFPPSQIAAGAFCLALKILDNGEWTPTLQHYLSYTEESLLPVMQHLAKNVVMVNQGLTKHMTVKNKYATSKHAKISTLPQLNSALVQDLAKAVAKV
Put plainly: CyclinB/cdk1 protein kinase assay (histone H1 phosphorylation). It counts as biochemical. The conditions noted are these: complex immunopurified from HeLa cells; 15 μM ATP; replicate experiments. How it is done: HeLa cells are blocked at the G1/S border by culturing in the presence of 2 mM thymidine for 20 h. The cells are then rinsed 3×in phosphate buffered saline and resuspended in regular medium. After 4 h of culture, the mitotic blocker, nocodazole is added to a final concentration of 75 ng/ml. […] The lysate is then clarified by centrifugation at 10,000×g for 10 min. The supernatant is collected and diluted 1:5 with Lysis Buffer. Monoclonal antibody against cyclinB (GNS1) is added to the supernatant to a final concentration of 5 μg/ml and shaken at 4° C. for 2 h. The immune complexes are then collected by the addition of 200 μl of protein agarose beads for 1 h. The beads are washed 4×in lysis buffer and 1×in kinase assay buffer.
Duplicate assays were performed at each concentration.

Series [2] concerns the target CyclinA/cdk2 (Homo sapiens, UniProt P24941). In words: CyclinA/cdk2 protein kinase assay (histone H1 phosphorylation). The conditions noted are these: IC50 CyclinA/cdk2, complex immunopurified from HeLa cells; 15 μM ATP; replicate experiments.
Series [3] has as its target CyclinE/cdk2 (Homo sapiens, UniProt P24941). Put plainly: CyclinE/cdk2 protein kinase assay (histone H1 phosphorylation). The conditions noted are these: 15 μM ATP, replicate experiments.
Series [4] deals with HeLa S-3 cells. Put plainly: Inhibition of cell growth of HeLa cells (SRB). The settings on record: 2 days of treatment, replicate experiments. The series is classed as cell-based, human. How it is done: Growth inhibition (GI50) values were measured with HeLa S-3 cells selected for growth on plastic. […] One day later, a control plate was fixed by addition of TCA to 5%. After five rinses with tap water the plate was air dried and stored at 4° C. Test compounds were added to the remaining plates at 10-fold dilutions between 0.01 and 100 μM. Two days later all plates were fixed as described above. Cells were then stained by the addition of 100 μl per well of 0.4% sulforhodamine B (SRB) in 1% acetic acid for 30 min at 4° C. Wells were then quickly rinsed 5×with acetic acid (1%) and allowed to air dry. The SRB was then solubilized by the addition of 100 μl per well of unbuffered 10 mM Tris base. Dye was quantified by measuring absorbance at 490 nm on a Molecular Devices kinetic microplate reader. Growth at each inhibitor concentration relative to the untreated control was calculated according to the following equation: percent growth=100×(T−To)/(C−To), where T was the average optical density (OD) of the test wells after 2 days of treatment, To was the average OD of the wells in the control plate on day 0 and C was the average OD of untreated wells. Plots of percent growth versus inhibitor concentration were used to determine the GI50.

For series [5], the system named is Tumor Cells in Hollow Fibers. Put plainly: NCI Hollow Fiber Assay (in vivo evaluation). The settings on record: for IP Score: IP fibers; for SC score: SC fibers.
Where [6] appears, read: IC50 CyclinE/cdk2, complex immunopurified from HeLa cells.

pIC50: −log10 of the molar value. Several values for one entry are separate records, joined by “and”; a condition that tells them apart may be missing. Identical values can stand only once. Entries after “also recorded” stand apart in the source; their conditions may differ. Like-named read-outs stand apart in the source and are kept apart here.

Regarding `CC(C)n1cnc2c(NCc3ccc(-c4ccccc4)cc3)nc(N[C@H]3CCCC[C@H]3NC(=O)Nc3ccccc3)nc21` [Compound 80], the pIC50 in series [1] was under 5.00; in series [2], under 5.00; in series [3] (setting [6]), < 5.00 and 5.40 and 5.70.

On to `CC(=O)N[C@H]1CC[C@H](Nc2nc(NCc3ccc(-c4ccccn4)nc3)c3ncn(C(C)C)c3n2)CC1` [Compound 94], for which, in series [1], the pIC50 is 6.40. Further, it took 100 nM to inhibit growth in series [4] (Homo sapiens, HeLa S3, 48 h) by half (GI50). For the same molecule, in series [5], the “Cell Types Killed” value is on record as “COLO205,; also recorded: OVCAR-3, H522”; the “IP Score” value was 22; the SC score came out at 2. Besides, in series [2], the pIC50 was 6.22 and 6.70. Also, in series [3] (setting [6]), the pIC50 was 6.52.

Molecule `CC(C)n1cnc2c(NCc3ccc(-c4ccccc4)nc3)nc(N[C@H]3CC[C@H](N)CC3)nc21` [Compound 86] gave a pIC50 in series [1] of 5.70. Further, in series [5], the “Cell Types Killed” value was “OVCAR 3,; also recorded: OVCAR 5, H522”; the “IP Score” value came to 38; the SC score is reported as 0. For the same molecule, the pIC50 in series [2] was 6.05 and 6.15 and 6.40 and 6.22.

As for `CC(C)n1cnc2c(NCc3ccc(-c4ccc(F)c(Cl)c4)cc3)nc(N[C@H]3CC[C@H](N)CC3)nc21` [Compound 14], the pIC50 in series [1] is 5.15. In series [4], this molecule had a GI50 of 30 nM.

In the case of `CC(=O)N[C@H]1CC[C@H](Nc2nc(NCc3ccc(-c4cccc(Cl)c4)cc3)c3ncn(C(C)C)c3n2)CC1` [Compound 110], it took 20 nM to inhibit growth in series [4] by half (GI50). Further, in series [5], the “Cell Types Killed” value is recorded as “OVCAR-3”, the “IP Score” value is 14 and the SC score is on record as 0. The pIC50 in series [2] was 6.22. For the same molecule, in series [3] (setting [6]), the pIC50 is 5.70.

Regarding `CCn1cnc2c(Nc3cccc(Cl)c3)nc(N[C@H]3CCCC[C@H]3N)nc21` [Compound 125, reference compound], the pIC50 in series [1] is 6.22; in series [2] it was 6.00; in series [3] (setting [6]) it was 7.00. Moreover, in series [4] (Homo sapiens, HeLa S3, 48 h), the GI50 is 3000 nM.

Regarding `CC(=O)N[C@H]1CC[C@H](Nc2nc(NCc3ccc(-c4cccc(CN)c4)cc3)c3ncn(C(C)C)c3n2)CC1` [Compound 223], the melting point lay in the range of 200 to 206 °C.

For the molecule `CC(=O)N[C@H]1CC[C@H](Nc2nc(NCc3ccc(-c4cccc(F)c4)cc3)c3ncn(C(C)C)c3n2)CC1` [Compound 96], the pIC50 is 5.22 in series [1], 5.10 in series [2] and 5.40 in series [3] (setting [6]).

In series [1], `CC(C)n1cnc2c(NCc3ccc(-c4cccc(F)c4)cc3)nc(N[C@H]3CC[C@H](N)CC3)nc21` [Compound 95] gave a pIC50 of 5.40.

In the case of `CC(C)n1cnc2c(NCc3cccnc3)nc(N[C@@H]3CCCC[C@@H]3N)nc21` [Compound 126, reference compound], the pIC50 in series [1] is 5.70 and 6.70; in series [2] it was 6.22 and 6.10; in series [3] (setting [6]), 7.22; in series [3] (read-out: IC50 CyclinE/cdk2, complex immunopurified from HeLa cells) it was 7.22.

On to `C=CCn1cnc2c(NCc3ccc(-c4ccccc4)cc3)nc(N[C@H]3CC[C@H](N)CC3)nc21` [Compound 146], for which the melting point was 111 to 114 °C.

`Cc1cc(C)cc(-c2ccc(CNc3nc(N[C@H]4CC[C@H](N)CC4)nc4c3ncn4C(C)C)cc2)c1` [Compound 149] displayed a melting point of 86 to 90 °C.

On to `CC(C)n1cnc2c(NCc3ccc(-c4ccccn4)nc3)nc(N[C@H]3CC[C@H](N)CC3)nc21` [Compound 93], for which the pIC50 in series [1] is 6.05; in series [2] it was 6.70 and 6.52; in series [3] (setting [6]) it was 7.05 and 7.00. Moreover, in series [4], the GI50 came to 300 nM. Besides, the “Cell Types Killed” value in series [5] is reported as “OVCAR-3”. For the same molecule, in series [5], the “IP Score” value is given as 22. Also, the SC score in series [5] was 8.

Consider `CC[C@H](CO)Nc1nc(NCc2ccc(-c3cccc(NC(C)=O)c3)cc2)c2ncn(C(C)C)c2n1` [Compound 5], for which the pIC50 in series [1] was 5.15. In series [4] (Homo sapiens, HeLa S3, 48 h), the GI50 stood at 5000 nM.

`CC(=O)N[C@H]1CC[C@H](Nc2nc(NCc3cccc(-c4ccccc4)c3)c3ncn(C(C)C)c3n2)CC1` [Compound 135] showed a melting point of 183 to 185 °C.

Consider `CC(C)n1cnc2c(NCc3ccc(-c4ccccc4)cc3)nc(N[C@@H]3CCCC[C@@H]3N)nc21` (racemic) [Compound 74], for which the pIC50 in series [1] was 5.22; in series [2] it was 5.30 and 5.70 and 6.00; in series [3] (setting [6]) it was 5.70 and 5.52.

For the molecule `N[C@H]1CC[C@H](Nc2nc(NCc3ccc(-c4ccccc4)cc3)c3ncn(C4CCCC4)c3n2)CC1` [Compound 144], the melting point is 144 to 146 °C.

As to `CC(C)n1cnc2c(NCc3ccc(-c4ccccc4)cc3)nc(N[C@@H]3CCCC[C@H]3N)nc21` (racemic) [Compound 58], the pIC50 was 4.92 in series [1]; 4.96 and 5.40 in series [2]; 5.70 and 5.40 in series [3] (setting [6]).

Turning to `CC(=O)N[C@H]1CC[C@H](Nc2nc(NCc3ccc(-c4ccc(Cl)cc4)cc3)c3ncn(C(C)C)c3n2)CC1` [Compound 99], the pIC50 is under 5.00 in series [1], under 5.00 in series [2] and 5.05 in series [3] (setting [6]). In series [4] (Homo sapiens, HeLa S3, 48 h), this molecule showed a 50% growth inhibitory concentration (GI50) of 5000 nM.

`CC(=O)N[C@H]1CC[C@H](Nc2nc(NCc3ccc(-c4cccs4)cc3)c3ncn(C(C)C)c3n2)CC1` [Compound 112]: in series [5], the “Cell Types Killed” value is “OVCAR-3”, the “IP Score” value worked out at 18 and the SC score came to 2. The pIC50 in series [2] is 5.70. This molecule showed a pIC50 in series [3] (setting [6]) of 5.70.

On to `CC(C)n1cnc2c(NCc3ccc(-c4ccccc4)cc3)nc(N[C@H]3CC[C@H](N)CC3)nc21` [Compound 75], for which the values for the pIC50 in series [1], in series [2] and in series [3] (setting [6]) were 5.22, 5.52 and 5.52, respectively.

`CC(C)n1cnc2c(NCc3ccc(-c4ccccc4)cc3)nc(NC3(CO)CCCC3)nc21` [Compound 53]: the pIC50 in series [1] is under 5.00; in series [2], under 5.00; in series [3] (setting [6]) it was 4.82 and 5.40.

For the molecule `CC(C)n1cnc2c(NCc3ccc(-c4cccnc4)cc3)nc(N[C@H]3CC[C@H](N)CC3)nc21` [Compound 103], the pIC50 in series [1] is 6.00; in series [2], 6.22 and 6.15; in series [3] (setting [6]), 6.70. The “Cell Types Killed” value in series [5] was “OVCAR 3,; also recorded: OVCAR 5, H522,; also recorded: MDA-MB-435,; also recorded: SF295”. Moreover, in series [5], the “IP Score” value amounted to 38. Further, the SC score in series [5] is 6.

With `CC(C)n1cnc2c(NCc3ccc(-c4ccc(F)cc4)cc3)nc(N[C@H]3CC[C@H](N)CC3)nc21` [Compound 101], the pIC50 in series [1] is 5.40.

`CC(=O)N[C@H]1CC[C@H](Nc2nc(NCc3ccc(-c4cccnc4)cc3)c3ncn(C(C)C)c3n2)CC1` [Compound 104]: the pIC50 is 5.70 in series [1]; 5.15 and 5.10 in series [2]; 6.00 in series [3] (setting [6]). This molecule returned a GI50 in series [4] (Homo sapiens, HeLa S3, 48 h) of 200 nM.

For `CC(=O)N[C@H]1CCCC[C@@H]1Nc1nc(NCc2ccc(-c3ccccc3)cc2)c2ncn(C(C)C)c2n1` [Compound 60], the pIC50 was under 5.00 in series [1]; 4.92 and < 5.00 in series [3] (setting [6]). For the same molecule, the GI50 in series [4] (Homo sapiens, HeLa S3, 48 h) was determined as 7000 nM.

As to `Cc1ccc(-c2ccc(CNc3nc(N[C@H]4CC[C@H](N)CC4)nc4c3ncn4C(C)C)cc2)cc1` [Compound 13], the pIC50 in series [1] is 5.40; in series [2], 5.40 and 6.00 and 6.10; in series [3] (setting [6]), 5.70 and 6.52 and 6.05.

Consider `CC(C)n1cnc2c(NCc3ccc(-c4ccc(Cl)cc4)cc3)nc(N[C@H]3CC[C@H](N)CC3)nc21` [Compound 98], for which, in series [1], the pIC50 was under 5.00.

Regarding `CC(=O)N[C@H]1CC[C@H](Nc2nc(NCc3ccc(-c4ccc(F)c(Cl)c4)cc3)c3ncn(C(C)C)c3n2)CC1` [Compound 100], the pIC50 in series [1] is under 5.00; in series [2], under 5.00; in series [3] (setting [6]), 5.40. The molecule also came in with a GI50 in series [4] (Homo sapiens, HeLa S3, 48 h) of 600 nM.
